This is an account of results in paper PMC8427973, “Regulation of the HTRA2 Protease Activity by an Inhibitory Antibody-Derived Peptide Ligand and the Influence on HTRA2-Specific Protein Interaction Networks in Retinal Tissues” (Biomedicines, 2021).

For assay [1], the target named is T1, recombinant HTRA2 protein (Homo sapiens, UniProt O43464).
T1 construct: 6xHis (C); purchased Novoprotein Scientific INC., Summit, NJ, USA
T1 sequence (O43464 134-458): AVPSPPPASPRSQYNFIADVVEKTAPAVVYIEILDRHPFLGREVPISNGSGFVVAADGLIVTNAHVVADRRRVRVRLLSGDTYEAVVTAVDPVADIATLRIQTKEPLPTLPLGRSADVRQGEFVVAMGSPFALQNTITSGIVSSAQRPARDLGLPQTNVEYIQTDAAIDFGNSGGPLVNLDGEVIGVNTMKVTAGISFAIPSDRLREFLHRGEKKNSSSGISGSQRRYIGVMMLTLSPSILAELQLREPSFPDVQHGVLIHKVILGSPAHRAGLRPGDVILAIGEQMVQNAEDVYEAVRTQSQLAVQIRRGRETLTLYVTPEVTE
The assay can be described thus: HTRA2 protease activity assay with fluorescent H2-optimal substrate. The assay is classed as biochemical. The note with it: for Inhibitory effect on HTRA2 after targeted alanine substitution in the CDR binding motif (mutational analysis): protease activity assay, Figure S1; for Increase of the average degradation rate of the optimal substrate H2 with respect to the untreated positive control: 100 nM HTRA2, 10 µM substrate, RT; for Average degradation rate of the optimal substrate H2 by HTRA2 (enzymatic reaction rate per minute): 100 nM recombinant HTRA2, 10 µM H2-optimal substrate, pH 8.0, RT, fluorescence ex 320 nm / em 405 nm, untreated positive control 229 U/min. As to the method:
The HTRA2 protease activity assay was performed as described by Martins et al. (2003), but with some slight modifications. The experiment was performed with 100 nM recombinant HTRA2 protein (Novoprotein Scientific INC., Summit, NJ, USA) in a protease assay buffer (50 mM tris(hydroxymethyl)-aminomethane (TRIS), 0.5 mM ethylenediaminetetraacetic acid (EDTA), and 1 mM dithiothreitol (DTT), pH 8.0) containing 10 µM H2-optimal substrate (Innovagen AB, Lund, Sweden). The H2-optimal substrate is commonly used to measure the protease activity of HTRA2 and consists of a structural quencher and a fluorophore unit. The cleavage of the substrate leads to the disruption of the quencher/fluorophore complex and the degradation rate can be measured by fluorescence. The different sample groups were treated with 50 µM PDZ-Opt, 50 µM PDZ-Sub, 50 µM synthetic CDR1 peptide, or 30 µM UCF-101, respectively. The drug compound UCF-101 is an inhibitor of the catalytic domain of HTRA2 and was purchased from Sigma Aldrich (Darmstadt, Germany). The concentrations of the peptide ligands for the HTRA2 protease activity assay were chosen from the previous publication. The concentration of UCF-101 was determined to be optimal from the preliminary experiments. In addition, a positive control containing only 100 nM recombinant HTRA2 and a negative control (only protease assay buffer) were included in this experiment. All of the sample groups were incubated for 1 h at 37 °C to determine the maximum degradation rate of HTRA2. For the analysis of the enzymatic reaction rate of HTRA2, all samples were measured subsequently after the addition of the 10 µM H2-optimal substrate at RT. Fluorescence was monitored on a Spark® 10 M multimode microplate-reader (Tecan Trading AG, Männedorf, Switzerland) with an excitation at 320 nm and a fluorescence emission at 405 nm. The fluorescence background of the substrate was substracted from the fluorescence intensities of the different the sample groups to normalize the data.
To determine the proteolytic activity of HTRA2 we used the fluorescent H2 optimal substrate developed by Martins et al. (2003). The optimal substrate H2 encoded a short specific amino acid sequence, which is preferentially cleaved by HTRA2, and was also modified with a fluorescent dye and quencher. […] Under physiological conditions, the proteolytic activity of HTRA2 is suppressed by the C-terminal PDZ domain, which blocks the access of potential substrates to the catalytic domain by steric hindrance. The binding of short hydrophobic polypeptides to the allosteric PDZ domain can induce specific conformational changes of HTRA2 and are able to regulate its proteolytic activity. Therefore, Martins et al. (2003) specifically designed the peptide ligands PDZ-Opt (GQYYFV) and PDZ-Sub (GGIRRV), which are known to increase the proteolytic activity of HTRA2 in this assay.

A further assay has as its system HTRA2-PDZ domain. More on the design: method as in PMID 23457469. To be noted: cited from earlier work.
The target in assay [2] is Serine protease HTRA2, mitochondrial (recombinant, 6xHis-tag) (UniProt O43464).

Turning to “ASGATFTNYGLSWVR [Y(4), CDR peptide for the mutational analysis, alanine at position 4]”, the “Inhibitory effect on HTRA2 after targeted alanine substitution in the CDR binding motif (mutational analysis)” value (“Inhibitory effect on HTRA2” below) in assay [1] was “particular important presence of Y(4) and F(6) for the inhibitory effect on HTRA2”.
Take AGYTGFV: the “Glide score for binding to the HTRA2-PDZ domain” value in the assay with HTRA2-PDZ domain is -7.903 kcal/mol.
As for “ASGYTATNYGLSWVR [F(6), CDR peptide for the mutational analysis, alanine at position 6]”, the “Inhibitory effect on HTRA2” value in assay [1] was “particular important presence of Y(4) and F(6) for the inhibitory effect on HTRA2”.
For “GGIRRV [PDZ-Sub, a peptide generated by HTRA2 auto-proteolysis, reference compound]”, in assay [1] (50 µM peptide), the “Increase of the average degradation rate of the optimal substrate H2 with respect to the untreated positive control” value is listed as “up to 18%” and the “Average degradation rate of the optimal substrate H2 by HTRA2 (enzymatic reaction rate per minute)” value is 272 U/min.
On to “ASGYAFTNYGLSWVR [T(5) to A(5), CDR peptide for the mutational analysis, alanine at position 5]”, for which the “Inhibitory effect on HTRA2” value in assay [1] was “significantly strengthened the inhibitory effect”.
In the case of GQYYFV [PDZ-Opt, reference compound], in assay [1] (50 µM peptide), the “Increase of the average degradation rate of the optimal substrate H2 with respect to the untreated positive control” value is listed as “up to 50%” and the “Average degradation rate of the optimal substrate H2 by HTRA2 (enzymatic reaction rate per minute)” value was 345 U/min.
As for “YVWAGSTLSRTGNFY [scrambled CDR, scrambled CDR peptide analog]”, in assay [1] (50 µM peptide, 1 h at 37 °C, n = 3, Figure 1C), the “Maximum degradation rate of the H2 optimal substrate by HTRA2” value was “unable to induce the suppression of the HTRA2 protease activity”.

B1: PDZ-Sub (peptide)
peptide: GGIRRV
For the molecule B1, in assay [2], the average degradation rate of the fluorescent H2 optimal substrate (10 µM) by 100 nM HTRA2 with 50 µM PDZ-Sub; untreated HTRA2 229 U/min (increase up to 18%) was found to be 272 U/min.

B2: PDZ-Opt (peptide)
peptide: GQYYFV
As for B2, in assay [2], the average degradation rate of the fluorescent H2 optimal substrate (10 µM) by 100 nM HTRA2 with 50 µM PDZ-Opt; untreated HTRA2 229 U/min (increase up to 50%) was 345 U/min.
